In US3978045A, “N^2 -dansyl-L-arginine derivatives, and the pharmaceutically acceptable acid addition salts thereof” (priority 1973, dated 1976):
Non-standard residues stand in square brackets, D forms with d. Residues, ends and D or L forms follow the SMILES beside them. *: point of attachment. Dansyl = CN(C)c1cccc2c(S(=O)(=O)*)cccc12; Pyrrolidide = C1CCN(*)C1; Sar = CNCC(=O)O

Target: T1, thrombin (Bos taurus, UniProt P00735)
T1 construct: mature alpha-thrombin (light plus heavy chain) cut from prothrombin
Assay: Fibrinogen coagulation time (thrombin-induced clotting of fibrinogen)
Type: biochemical
Conditions: bovine fibrinogen, borate saline buffer pH 7.4, thrombin 0.1 ml of 5 units/ml, 25°C; control coagulation time 50-55 seconds; read-out: Concentration required to prolong the coagulation time by a factor of 2
Experimental: The antithrombotic activities of the N^2 -dansyl-L-arginine derivatives of this invention were compared with those of a known antithrombotic agent, (N^2 -(p-tolylsulfonyl)-L-arginine methyl ester). by determining the fibrinogen coagulation time. The measurement of the fibrinogen coagulation time was conducted as follows:
Immediately after mixing, the reaction mixture was transferred from the ice bath to a bath thermostated at 25°C. Coagulation times were taken as the period between the time of transference to the 25°C bath and the time of the first appearance of fibrin threads.
The term "concentration required to prolong the coagulation time by a factor of two" is the concentration of an active ingredient required to prolong the normal coagulation time 50-55 seconds to 100-110 seconds.

Compound | IC (2-fold clotting time)
CCOCCNC(=O)[C@H](CCCNC(=N)N)NS(=O)(=O)c1cccc2c(N(C)C)cccc12 [Sample 30, N^2-dansyl-N-(2-ethoxyethyl)-L-argininamide] | 5 µM
CCOC(=O)CNC(=O)[C@H](CCCNC(=N)N)NS(=O)(=O)c1cccc2c(N(C)C)cccc12 [Sample 31, N^2-dansyl-N-(2-ethoxycarbonylmethyl)-L-argininamide diacetate] (Dansyl-Arg-Gly-OEt) | 160 µM
COC(=O)CCNC(=O)[C@H](CCCNC(=N)N)NS(=O)(=O)c1cccc2c(N(C)C)cccc12 [Sample 32, N^2-dansyl-N-(2-methoxycarbonylethyl)-L-argininamide] | 22 µM
CCOC(=O)CCNC(=O)[C@H](CCCNC(=N)N)NS(=O)(=O)c1cccc2c(N(C)C)cccc12 [Sample 33, N^2-dansyl-N-(2-ethoxycarbonylethyl)-L-argininamide diacetate] | 5 µM
CCOC(=O)CCCNC(=O)[C@H](CCCNC(=N)N)NS(=O)(=O)c1cccc2c(N(C)C)cccc12 [Sample 34] | 500 µM
C=CCNC(=O)[C@H](CCCNC(=N)N)NS(=O)(=O)c1cccc2c(N(C)C)cccc12 [Sample 35, N^2 -dansyl-N-allyl-L-argininamide] | 10 µM
CN(C)c1cccc2c(S(=O)(=O)N[C@@H](CCCNC(=N)N)C(=O)NC3CC3)cccc12 [Sample 36] | 200 µM
CN(C)c1cccc2c(S(=O)(=O)N[C@@H](CCCNC(=N)N)C(=O)NCC3CCCCC3)cccc12 [Sample 37, N^2 -dansyl-N-cyclohexylmethyl-L-argininamide] | 40 µM
CN(C)c1cccc2c(S(=O)(=O)N[C@@H](CCCNC(=N)N)C(=O)Nc3ccccc3)cccc12 [Sample 38] | 100 µM
CN(C)c1cccc2c(S(=O)(=O)N[C@@H](CCCNC(=N)N)C(=O)NCc3ccccc3)cccc12 [Sample 39] | 50 µM
CN(C)c1cccc2c(S(=O)(=O)N[C@@H](CCCNC(=N)N)C(=O)NCCc3ccccc3)cccc12 [Sample 40, N^2 -dansyl-N-(β-phenylethyl)-L-argininamide dihydrate] | 150 µM
CN(C)c1cccc2c(S(=O)(=O)N[C@@H](CCCNC(=N)N)C(=O)NCCCc3ccccc3)cccc12 [Sample 41] | 27 µM
CN(C)c1cccc2c(S(=O)(=O)N[C@@H](CCCNC(=N)N)C(=O)NCCC(=O)Nc3ccccc3)cccc12 [Sample 42, N^2-dansyl-N-(2-phenylcarbamoylethyl)-L-argininamide diacetate] | > 500 µM
CN(C)c1cccc2c(S(=O)(=O)N[C@@H](CCCNC(=N)N)C(=O)NCC(=O)N3CCCC3)cccc12 [Sample 43] (Dansyl-Arg-Gly-Pyrrolidide) | 370 µM
CCN(CC)C(=O)[C@H](CCCNC(=N)N)NS(=O)(=O)c1cccc2c(N(C)C)cccc12 [Sample 45, N^2 -dansyl-N,N-diethyl-L-argininamide diacetate] | 55 µM
CCCCN(CCCC)C(=O)[C@H](CCCNC(=N)N)NS(=O)(=O)c1cccc2c(N(C)C)cccc12 [Sample 46] | 39 µM
CCCCN(C)C(=O)[C@H](CCCNC(=N)N)NS(=O)(=O)c1cccc2c(N(C)C)cccc12 [Sample 47, N^2 -dansyl-N-(n-butyl)-N-methyl-L-argininamide diacetate] | 2 µM
CCCCN(CC)C(=O)[C@H](CCCNC(=N)N)NS(=O)(=O)c1cccc2c(N(C)C)cccc12 [Sample 48] | 50 µM
CCOC(=O)CN(C)C(=O)[C@H](CCCNC(=N)N)NS(=O)(=O)c1cccc2c(N(C)C)cccc12 [Sample 49] (Dansyl-Arg-[Sar]-OEt) | 59 µM
COC(=O)CCN(C)C(=O)[C@H](CCCNC(=N)N)NS(=O)(=O)c1cccc2c(N(C)C)cccc12 [Sample 50, N^2-dansyl-N-methyl-N-(2-methoxycarbonylethyl)-L-argininamide] | 2.5 µM
CCOC(=O)CCN(C)C(=O)[C@H](CCCNC(=N)N)NS(=O)(=O)c1cccc2c(N(C)C)cccc12 [Sample 51] | 15 µM
